Reference: publication PMC5218480 (PLoS ONE, 2017)

System: MV-4-11 cells
Assay: Gene expression microarray analysis (Affymetrix PrimeView) and GSEA
Assay type: cell-based, human
Design: RFU PODN (11730768_x_at) / Fold change /veh PODN (11730768_x_at) / RFU LINC00158 (11744669_a_at) / Fold change /veh LINC00158 (11744669_a_at) / RFU DUSP10 (11751237_a_at) / Fold change /veh DUSP10 (11751237_a_at) / RFU ID3 (11757404_x_at) / Fold change /veh ID3 (11757404_x_at) / RFU PLEKHG5 (11737974_s_at) / Fold change /veh PLEKHG5 (11737974_s_at) / RFU LRRC4B (11730491_at) / Fold change /veh LRRC4B (11730491_at) / RFU GIMAP4 (11747438_a_at) / Fold change /veh GIMAP4 (11747438_a_at) / RFU KRT8 (11758183_x_at) / Fold change /veh KRT8 (11758183_x_at) / RFU CNN1 (11734310_a_at) / Fold change /veh CNN1 (11734310_a_at) / RFU VPS37D (11726825_at) / Fold change /veh VPS37D (11726825_at) / RFU C10orf10 (11716522_x_at) / Fold change /veh C10orf10 (11716522_x_at) / RFU KIR2DL2 /// KIR2DL4 /// KIR2DL5A /// KIR2DL5B /// KIR2DS1 /// KIR2DS2 /// KIR2DS3 /// KIR2DS4 /// KIR3DL3 /// KIR3DL3 /// KIR3DS1 (11738374_at) / Fold change /veh KIR2DL2 /// KIR2DL4 /// KIR2DL5A /// KIR2DL5B /// KIR2DS1 /// KIR2DS2 /// KIR2DS3 /// KIR2DS4 /// KIR3DL3 /// KIR3DL3 /// KIR3DS1 (11738374_at) / RFU C1QL1 (11718748_at) / Fold change /veh C1QL1 (11718748_at) / RFU TMPRSS4 (11747572_a_at) / Fold change /veh TMPRSS4 (11747572_a_at) / RFU HAMP (11756126_x_at) / Fold change /veh HAMP (11756126_x_at) / RFU RNFT2 (11725882_a_at) / Fold change /veh RNFT2 (11725882_a_at) / RFU NR4A2 (11747474_a_at) / Fold change /veh NR4A2 (11747474_a_at) / RFU ABCC12 (11746883_a_at) / Fold change /veh ABCC12 (11746883_a_at) / RFU TMEM136 (11760407_x_at) / Fold change /veh TMEM136 (11760407_x_at) / RFU CLDN22 /// WWC2 (11732394_at) / Fold change /veh CLDN22 /// WWC2 (11732394_at) / RFU HLA-DPB1 (11760878_x_at) / Fold change /veh HLA-DPB1 (11760878_x_at) / RFU SPINT1 (11716480_a_at) / Fold change /veh SPINT1 (11716480_a_at) / RFU GAP43 (11754022_s_at) / Fold change /veh GAP43 (11754022_s_at) / RFU A4GNT (11735810_at) / Fold change /veh A4GNT (11735810_at) / RFU PRB3 (11715151_x_at) / Fold change /veh PRB3 (11715151_x_at) / RFU TUBB4B (11761932_at) / Fold change /veh TUBB4B (11761932_at) / RFU CAPN14 (11732068_a_at) / Fold change /veh CAPN14 (11732068_a_at) / RFU TMCC2 (11721928_a_at) / Fold change /veh TMCC2 (11721928_a_at) / RFU IRGQ (11745062_a_at) / Fold change /veh IRGQ (11745062_a_at) / RFU FAM174B (11720279_a_at) / Fold change /veh FAM174B (11720279_a_at) / RFU TMPRSS4 (11748680_a_at) / Fold change /veh TMPRSS4 (11748680_a_at) / RFU FAM212B (11763350_a_at) / Fold change /veh FAM212B (11763350_a_at) / RFU PLEKHG5 (11743358_a_at) / Fold change /veh PLEKHG5 (11743358_a_at) / RFU ZSCAN30 (11745921_a_at) / Fold change /veh ZSCAN30 (11745921_a_at) / RFU CMKLR1 (11741424_a_at) / Fold change /veh CMKLR1 (11741424_a_at) / RFU LOC101060620 /// MAPK8IP1 (11723275_at) / Fold change /veh LOC101060620 /// MAPK8IP1 (11723275_at) / RFU SPTSSB (11747773_x_at) / Fold change /veh SPTSSB (11747773_x_at) / RFU PRSS12 (11739890_at) / Fold change /veh PRSS12 (11739890_at) / RFU BIN1 (11741810_x_at) / Fold change /veh BIN1 (11741810_x_at) / RFU WNT11 (11732464_a_at) / Fold change /veh WNT11 (11732464_a_at) / RFU C10orf10 (11716521_a_at) / Fold change /veh C10orf10 (11716521_a_at) / RFU C5orf56 (11738089_at) / Fold change /veh C5orf56 (11738089_at) / RFU CYB561 (11721691_x_at) / Fold change /veh CYB561 (11721691_x_at) / RFU ANKRD19P (11752326_a_at) / Fold change /veh ANKRD19P (11752326_a_at) / RFU OR2T12 /// OR2T33 /// OR2T8 (11738714_s_at) / Fold change /veh OR2T12 /// OR2T33 /// OR2T8 (11738714_s_at) / RFU VCAN (11748164_a_at) / Fold change /veh VCAN (11748164_a_at) / RFU JSRP1 (11732532_at) / Fold change /veh JSRP1 (11732532_at) / RFU KRTAP10-11 (11738290_x_at) / Fold change /veh KRTAP10-11 (11738290_x_at) / RFU MYO3A (11730013_a_at) / Fold change /veh MYO3A (11730013_a_at) / RFU EBF3 (11725865_a_at) / Fold change /veh EBF3 (11725865_a_at) / RFU CAMK2N1 (11719241_x_at) / Fold change /veh CAMK2N1 (11719241_x_at) / RFU C5orf56 (11738088_a_at) / Fold change /veh C5orf56 (11738088_a_at) / RFU OLFML3 (11715873_a_at) / Fold change /veh OLFML3 (11715873_a_at) / RFU LOC100653217 /// NTM (11731650_a_at) / Fold change /veh LOC100653217 /// NTM (11731650_a_at) / RFU MAPK11 (11762145_a_at) / Fold change /veh MAPK11 (11762145_a_at) / RFU FIZ1 (11724087_x_at) / Fold change /veh FIZ1 (11724087_x_at) / RFU OASL (11726364_x_at) / Fold change /veh OASL (11726364_x_at) / RFU SOX15 (11748057_x_at) / Fold change /veh SOX15 (11748057_x_at) / RFU CD79A (11719716_a_at) / Fold change /veh CD79A (11719716_a_at) / RFU HIST1H1D (11736915_at) / Fold change /veh HIST1H1D (11736915_at) / RFU CASKIN2 (11723855_a_at) / Fold change /veh CASKIN2 (11723855_a_at) / RFU LOC730098 (11760151_x_at) / Fold change /veh LOC730098 (11760151_x_at) / RFU OR4N2 (11742367_at) / Fold change /veh OR4N2 (11742367_at) / RFU PRRT2 (11749266_a_at) / Fold change /veh PRRT2 (11749266_a_at) / RFU SNX32 (11753110_a_at) / Fold change /veh SNX32 (11753110_a_at) / RFU CDHR5 (11726645_a_at) / Fold change /veh CDHR5 (11726645_a_at) / RFU RCAN1 (11760418_a_at) / Fold change /veh RCAN1 (11760418_a_at) / RFU FAM167A (11723789_a_at) / Fold change /veh FAM167A (11723789_a_at) / RFU FAM26E (11764081_at) / Fold change /veh FAM26E (11764081_at) / RFU ISYNA1 (11749810_s_at) / Fold change /veh ISYNA1 (11749810_s_at) / RFU ACY1 (11761880_at) / Fold change /veh ACY1 (11761880_at) / RFU 11764098_at / Fold change /veh 11764098_at / RFU SAMD14 (11745864_x_at) / Fold change /veh SAMD14 (11745864_x_at) / RFU NPB (11741838_a_at) / Fold change /veh NPB (11741838_a_at) / RFU TMPRSS6 (11731388_a_at) / Fold change /veh TMPRSS6 (11731388_a_at) / RFU KRTAP10-2 (11738614_at) / Fold change /veh KRTAP10-2 (11738614_at) / RFU ARHGAP8 /// PRR5-ARHGAP8 (11727945_x_at) / Fold change /veh ARHGAP8 /// PRR5-ARHGAP8 (11727945_x_at) / RFU KRTAP5-7 /// NADSYN1 (11734609_at) / Fold change /veh KRTAP5-7 /// NADSYN1 (11734609_at) / RFU RASL12 (11751679_a_at) / Fold change /veh RASL12 (11751679_a_at) / RFU CDKN2B (11736163_a_at) / Fold change /veh CDKN2B (11736163_a_at) / RFU PRF1 (11729649_at) / Fold change /veh PRF1 (11729649_at) / RFU, ZNF638 /// ZNF638-IT1 / Fold change vs veh, ZNF638 /// ZNF638-IT1 / RFU, PANK3 / Fold change vs veh, PANK3 / RFU, SH3YL1 / Fold change vs veh, SH3YL1 / RFU, ZEB2 / Fold change vs veh, ZEB2 / RFU, NRIP1 / Fold change vs veh, NRIP1 / RFU, PTTG1IP / Fold change vs veh, PTTG1IP / RFU, CAPN2 / Fold change vs veh, CAPN2 / RFU, MED14 / Fold change vs veh, MED14 / RFU, SNORA58 / Fold change vs veh, SNORA58 / RFU, C1orf63 / Fold change vs veh, C1orf63 / RFU, LRRFIP1 / Fold change vs veh, LRRFIP1 / RFU, NDUFAF7 / Fold change vs veh, NDUFAF7 / RFU, SLC12A2 / Fold change vs veh, SLC12A2 / RFU, IBTK / Fold change vs veh, IBTK / RFU, ESF1 / Fold change vs veh, ESF1 / Fold change vs veh, TMEM50B / RFU, TAOK1 / Fold change vs veh, TAOK1 / RFU, ACBD3 / Fold change vs veh, ACBD3 / RFU, TMA16 / Fold change vs veh, TMA16 / RFU, RWDD3 / Fold change vs veh, RWDD3 / RFU, BCAT1 / Fold change vs veh, BCAT1 / RFU, EDEM3 / Fold change vs veh, EDEM3 / RFU, TMEM33 / Fold change vs veh, TMEM33 / RFU, WDR75 / Fold change vs veh, WDR75 / RFU, AHCTF1 / Fold change vs veh, AHCTF1 / RFU, TFRC / Fold change vs veh, TFRC / RFU, ZDHHC17 / Fold change vs veh, ZDHHC17 / RFU, NOM1 / Fold change vs veh, NOM1 / RFU, ARL8B / Fold change vs veh, ARL8B / RFU, ZBTB11 / Fold change vs veh, ZBTB11 / RFU, TAMM41 / Fold change vs veh, TAMM41 / RFU, KIAA1704 /// LOC100996395 / Fold change vs veh, KIAA1704 /// LOC100996395 / RFU, ING1 / Fold change vs veh, ING1 / RFU, TRMT61B / Fold change vs veh, TRMT61B / RFU, FUBP3 / Fold change vs veh, FUBP3 / RFU, TP53 / Fold change vs veh, TP53 / RFU, TNKS2 / Fold change vs veh, TNKS2 / RFU, ZFP14 / Fold change vs veh, ZFP14 / RFU, ACTR2 / Fold change vs veh, ACTR2 / RFU, PPP3R1 / Fold change vs veh, PPP3R1 / RFU, PIK3R1 / Fold change vs veh, PIK3R1 / RFU, HNRNPA1 / Fold change vs veh, HNRNPA1 / RFU, RNF170 / Fold change vs veh, RNF170 / RFU, ZNF28 / Fold change vs veh, ZNF28 / RFU, RNGTT / Fold change vs veh, RNGTT / RFU, OGT / Fold change vs veh, OGT / RFU, BRD1 / Fold change vs veh, BRD1 / RFU, MARS / Fold change vs veh, MARS / RFU, ZNF655 / Fold change vs veh, ZNF655 / RFU, FAHD1 / Fold change vs veh, FAHD1 / RFU, BDP1 / Fold change vs veh, BDP1 / RFU, LRRCC1 / Fold change vs veh, LRRCC1 / RFU, ARID1A / Fold change vs veh, ARID1A / RFU, ZNF146 / Fold change vs veh, ZNF146 / RFU, ZNF330 / Fold change vs veh, ZNF330 / RFU, GPN3 / Fold change vs veh, GPN3 / RFU, C9orf123 / Fold change vs veh, C9orf123 / RFU, N4BP2L2 / Fold change vs veh, N4BP2L2 / RFU, ARFIP1 / Fold change vs veh, ARFIP1 / RFU, FAM179B / Fold change vs veh, FAM179B / RFU, BCL10 / Fold change vs veh, BCL10 / RFU, UHRF1BP1L / Fold change vs veh, UHRF1BP1L / RFU, BET1 / Fold change vs veh, BET1 / RFU, CNOT2 / Fold change vs veh, CNOT2 / RFU, ZNF268 / Fold change vs veh, ZNF268 / Fold change vs veh, ZNF507 / RFU, DGCR2 / Fold change vs veh, DGCR2 / RFU, WDSUB1 / Fold change vs veh, WDSUB1 / Fold change vs veh, HSP90B1 /// MIR3652 / RFU, ADSS / Fold change vs veh, ADSS / RFU, GK / Fold change vs veh, GK / RFU, ZNF148 / Fold change vs veh, ZNF148 / RFU, TAF9 / Fold change vs veh, TAF9 / RFU, SLC1A5 / Fold change vs veh, SLC1A5 / RFU, SLMO2 / Fold change vs veh, SLMO2 / RFU, ABCC4 / Fold change vs veh, ABCC4 / RFU, LOC101060439 /// RAP1B / Fold change vs veh, LOC101060439 /// RAP1B / RFU, RFX7 / Fold change vs veh, RFX7 / RFU, GTPBP10 / Fold change vs veh, GTPBP10 / RFU, CNEP1R1 / Fold change vs veh, CNEP1R1 / RFU, BIVM-ERCC5 /// ERCC5 / Fold change vs veh, BIVM-ERCC5 /// ERCC5 / RFU, ILF3 / Fold change vs veh, ILF3 / RFU 11762660_at / Fold change /veh 11762660_at / RFU VCAN (11757783_s_at) / Fold change /veh VCAN (11757783_s_at) / RFU DDX43 (11728927_at) / Fold change /veh DDX43 (11728927_at) / RFU KRT8 (11758188_x_at) / Fold change /veh KRT8 (11758188_x_at) / RFU NKD1 (11759106_at) / Fold change /veh NKD1 (11759106_at) / RFU SRD5A1 (11742802_a_at) / Fold change /veh SRD5A1 (11742802_a_at) / RFU TPSAB1 /// TPSB2 (11721975_s_at) / Fold change /veh TPSAB1 /// TPSB2 (11721975_s_at) / RFU GSTM3 (11746129_a_at) / Fold change /veh GSTM3 (11746129_a_at) / RFU IL23R (11737362_x_at) / Fold change /veh IL23R (11737362_x_at) / RFU TMEM51 (11727254_a_at) / Fold change /veh TMEM51 (11727254_a_at) / RFU PIWIL2 (11732686_x_at) / Fold change /veh PIWIL2 (11732686_x_at) / RFU ORM1 (11744905_x_at) / Fold change /veh ORM1 (11744905_x_at) / RFU CCDC152 (11743942_at) / Fold change /veh CCDC152 (11743942_at) / RFU ECM1 (11717891_a_at) / Fold change /veh ECM1 (11717891_a_at) / RFU IL23R (11748794_a_at) / Fold change /veh IL23R (11748794_a_at) / RFU TNFAIP8L3 (11732012_x_at) / Fold change /veh TNFAIP8L3 (11732012_x_at) / RFU MBOAT4 (11741988_at) / Fold change /veh MBOAT4 (11741988_at) / RFU 11764193_at / Fold change /veh 11764193_at / RFU TMEM53 (11763286_at) / Fold change /veh TMEM53 (11763286_at) / RFU MAGEB2 (11727129_at) / Fold change /veh MAGEB2 (11727129_at) / RFU TMEM200A (11744735_a_at) / Fold change /veh TMEM200A (11744735_a_at) / RFU CCDC152 (11751479_a_at) / Fold change /veh CCDC152 (11751479_a_at) / RFU FAM211A (11726209_a_at) / Fold change /veh FAM211A (11726209_a_at) / RFU RGS16 (11746705_a_at) / Fold change /veh RGS16 (11746705_a_at) / RFU VCAN (11755009_s_at) / Fold change /veh VCAN (11755009_s_at) / RFU RHOB (11743442_s_at) / Fold change /veh RHOB (11743442_s_at) / RFU RGS16 (11720943_a_at) / Fold change /veh RGS16 (11720943_a_at) / RFU RGS16 (11720944_at) / Fold change /veh RGS16 (11720944_at) / RFU, VPS4B / Fold change vs veh, VPS4B / RFU, CREB1 / Fold change vs veh, CREB1 / RFU, DNAJC13 / Fold change vs veh, DNAJC13 / RFU, GNAQ / Fold change vs veh, GNAQ / RFU, CDK5R1 / Fold change vs veh, CDK5R1 / RFU, ZRANB3 / Fold change vs veh, ZRANB3 / RFU, CUL4A / Fold change vs veh, CUL4A / RFU, CCNY / Fold change vs veh, CCNY / RFU, UFL1 / Fold change vs veh, UFL1 / RFU, COG3 / Fold change vs veh, COG3 / RFU, DIAPH2 / Fold change vs veh, DIAPH2 / RFU, SKA2 / Fold change vs veh, SKA2 / RFU, AFF3 / Fold change vs veh, AFF3 / RFU, LMF1 / Fold change vs veh, LMF1 / RFU, IPO11 / Fold change vs veh, IPO11 / RFU, DFFB / Fold change vs veh, DFFB / RFU, FOXP1 / Fold change vs veh, FOXP1 / RFU, CARD8 / Fold change vs veh, CARD8 / RFU, STRN3 / Fold change vs veh, STRN3 / RFU, ADK / Fold change vs veh, ADK / RFU, RASSF2 / Fold change vs veh, RASSF2 / RFU, WIPF1 / Fold change vs veh, WIPF1 / RFU, LARP1B / Fold change vs veh, LARP1B / RFU, RASA1 / Fold change vs veh, RASA1 / RFU, RB1 / Fold change vs veh, RB1 / RFU, PPFIA1 / Fold change vs veh, PPFIA1 / RFU, MAT2A / Fold change vs veh, MAT2A / RFU, CCT5 / Fold change vs veh, CCT5 / RFU, WDR92 / Fold change vs veh, WDR92 / RFU, CUX1 / Fold change vs veh, CUX1 / RFU, TTC7A / Fold change vs veh, TTC7A / RFU, TMEM135 / Fold change vs veh, TMEM135 / RFU, DEPTOR / Fold change vs veh, DEPTOR / RFU, CPM / Fold change vs veh, CPM / RFU, DNAJB6 / Fold change vs veh, DNAJB6 / RFU, CACNA2D3 / Fold change vs veh, CACNA2D3 / RFU, DTX4 / Fold change vs veh, DTX4 / RFU, TFCP2 / Fold change vs veh, TFCP2 / RFU, GMCL1 /// GMCL1P1 / Fold change vs veh, GMCL1 /// GMCL1P1 / RFU, AEBP2 / Fold change vs veh, AEBP2 / RFU, SNHG1 /// SNORD22 /// SNORD25 /// SNORD26 /// SNORD27 /// SNORD28 /// SNORD29 /// SNORD31 / Fold change vs veh, SNHG1 /// SNORD22 /// SNORD25 /// SNORD26 /// SNORD27 /// SNORD28 /// SNORD29 /// SNORD31 / Fold change (Aza/veh), C12orf56 (ProbeSet 11735607_a_at) / Fold change (ACY-1035/veh), C12orf56 (ProbeSet 11735607_a_at) / Fold change (Aza/veh), FGFR1OP (ProbeSet 11751329_s_at) / Fold change (ACY-1035/veh), FGFR1OP (ProbeSet 11751329_s_at) / Fold change (Aza/veh), VPS36 (ProbeSet 11739960_a_at) / Fold change (ACY-1035/veh), VPS36 (ProbeSet 11739960_a_at) / RFU SYPL1 (11715823_x_at) / Fold change /veh SYPL1 (11715823_x_at) / RFU IGFBP7 (11715501_s_at) / Fold change /veh IGFBP7 (11715501_s_at) / RFU REEP3 (11722064_at) / Fold change /veh REEP3 (11722064_at) / RFU IGLL1 (11728026_x_at) / Fold change /veh IGLL1 (11728026_x_at): dose or concentration left out as unconfirmed
Conditions: ProbeSet 11732306_x_at; LIST D

Question: For `Nc1ncn([C@@H]2O[C@H](CO)[C@@H](O)[C@H]2O)c(=O)n1` [azacitidine], which “RFU, CREB1” value is on record?
Answer: 273.21 RFU
